Experimental data from patent publication US20220002280A1, “COMPOUNDS AND METHODS OF USE” (Ferro Therapeutics, Inc., priority 2019, published 2022).
Counter-ions that a name gives are not always drawn.

Key:
Type in all cases: cell-based, human
786-O = test: Cell proliferation (Alamar Blue) assay, 786-O; conditions: 786-O cells, 24 h treatment
Experimental: (§1) A cell viability assay was performed to assess the potency of the compounds in human cancer cell lines 786-0 (renal cell carcinoma), SJSA-1 (osteosarcoma), and/or A431 (epidermoid carcinoma). Additional cell lines, such as pancreatic cancer cell lines (e.g., Panc 02.13, BxPC-3, Panc 12, Panc 02.03, Panc 6.03, PSN-1, HPAC, and Capan-1), prostate cancer cell lines (e.g., PC-3, DU145, 22Rv1, NCI-H660, BPH1, LNCaP, BM-1604, and MDA PCa 2b), etc., can be tested in a similar method.
(§2) Cells (SJSA-1, 786-0 and/or A431) were seeded (5000 cells/100 μL/well) in 96-well tissue culture plate and incubated at 37° C./5% CO2 for 16-24 hours. The cells were then treated with compounds (25 μL of 5×). The compound concentrations were 10-0.0005 μM prepared in 3-fold serial dilutions with final DMSO concentration of 1%. The plates were then incubated for 24h at 37° C./5% CO2 in a moist environment. Then Alamar Blue™ reagent (final concentration 1×-12.5 μL) was added to each well and incubated for 1.5 hours at 37° C./5% CO2. The plates were read on fluorescence reader at 540 nm excitation and 590 nm emission wavelengths. The IC50 values were subsequently determined using a sigmoidal dose-response curve (variable slope) in GraphPad Prism® 5 software.

SJSA-1 = test: Cell proliferation (Alamar Blue) assay, SJSA-1; conditions: SJSA-1 cells, 24 h treatment
Experimental: as §1, §2

A431 = test: Cell proliferation (Alamar Blue) assay, A431; conditions: 24 h treatment
Experimental: as §1, §2

[1] = Homo sapiens, A-431, A431 cells

IC50 (786-O; Homo sapiens, 786-0, 24 h) [µM]	IC50 (SJSA-1; Homo sapiens) [µM]	IC50 (A431; [1]) [µM]	IC50 (786-O; hydrochloride) [µM]	IC50 (SJSA-1; hydrochloride) [µM]	IC50 (A431; A431 cells, hydrochloride) [µM]	SMILES
0.512	0.736	> 10	–	–	–	COC(=O)c1ccc([C@H]2c3ccccc3C[C@H](C(=O)OC)N2C(=O)CCl)cc1 [Compound 3, methyl (1S,3R)-2-(2-chloroacetyl)-1-(4-(methoxycarbonyl)phenyl)-1,2,3,4-tetrahydroisoquinoline-3-carboxylate]
0.002	0.005	3.6	–	–	–	CCCC[C@H]1Cc2cc(OC)ccc2[C@H](c2ccc(C(=O)NC3CCC3)cc2)N1C(=O)CCl [Compound 13, 4-((1S,3S)-3-butyl-2-(2-chloroacetyl)-6-methoxy-1,2,3,4-tetrahydroisoquinolin-1-yl)-N-cyclobutylbenzamide]
0.163	0.368	> 10	–	–	–	C#CC(=O)N1[C@@H](CCCC)Cc2cc(OC)ccc2[C@@H]1C12CC(NC(=O)c3ccncc3)(C1)C2 [Compound 96, N-(3-((1S,3S)-3-butyl-6-methoxy-2-propioloyl-1,2,3,4-tetrahydroisoquinolin-1-yl)bicyclo[1.1.1]pentan-1-yl)isonicotinamide]
0.021	0.021	6.13	–	–	–	C#CC(=O)N1[C@@H](CCCC)Cc2cc(OC)ccc2[C@@H]1c1ccc(NC(=O)C2CCC2)cc1 [Compound 102, N-(4-((1S,3S)-3-butyl-6-methoxy-2-propioloyl-1,2,3,4-tetrahydroisoquinolin-1-yl)phenyl)cyclobutanecarboxamide]
0.743	0.659	5.8	–	–	–	C#CC(=O)N1[C@@H](CCCC)Cc2cc(OC)ccc2[C@@H]1C1CCN(C)CC1 [Compound 54, 1-((3S)-3-butyl-6-methoxy-1-(1-methylpiperidin-4-yl)-3,4-dihydroisoquinolin-2(1H)-yl)prop-2-yn-1-one]
–	–	–	0.008	0.0115	6.87	C#CC(=O)N1[C@@H](CCCC)Cc2cc(OC)ccc2[C@@H]1c1ccc(NC23CC4CC(CC(C4)C2)C3)cc1 [Compound 101, 1-((1S,3S)-1-(4-(((3R,5R,7R)-adamantan-1-yl)amino)phenyl)-3-butyl-6-methoxy-3,4-dihydroisoquinolin-2(1H)-yl)prop-2-yn-1-one hydrochloride]
0.016	0.018	> 10	–	–	–	CCCC[C@H]1Cc2cc(OC)ccc2[C@H](c2ccc(F)cc2)N1C(=O)CCl [Compound 11, 1-((1S,3S)-3-butyl-1-(4-fluorophenyl)-6-methoxy-3,4-dihydroisoquinolin-2(1H)-yl)-2-chloroethan-1-one]
0.158	0.17	> 10	–	–	–	C#CC(=O)N1[C@@H](CCCC)Cc2cc(OC)ccc2[C@@H]1C1CCCCC1 [Compound 39, 1-((1S,3S)-3-butyl-1-cyclohexyl-6-methoxy-3,4-dihydroisoquinolin-2(1H)-yl)prop-2-yn-1-one]
0.037	0.2	> 10	–	–	–	C#CC(=O)N1[C@@H](CCCC)Cc2cc(OC)ccc2[C@@H]1c1ccc(NC(=O)c2ccnc(C)c2)cc1 [Compound 95, N-{4-[(1S,3S)-3-butyl-6-methoxy-2-(prop-2-ynoyl)-1,2,3,4-tetrahydroisoquinolin-1-yl]phenyl}-2-methylpyridine-4-carboxamide]
0.592	–	–	–	–	–	COC(=O)c1ccc([C@H]2c3cc(OC)c(OC)cc3C[C@H](C)N2C(=O)CCl)cc1 [Compound 34]
0.002	0.002	2.77	–	–	–	C#CC(=O)N1[C@@H](CCCC)Cc2cc(OC)ccc2[C@@H]1c1ccc(CNC23CC4CC(CC(C4)C2)C3)cc1 [Compound 99]
0.259	–	–	–	–	–	COc1ccc2c(c1)C[C@H](C)N(C(=O)CCl)[C@H]2c1ccc(N2CCOCC2)cc1 [Compound 33]
2	2.8	–	–	–	–	C[C@H]1Cc2ccccc2C(c2ccc(N3CCOCC3)cc2)N1C(=O)CCl (stereo partly drawn) [Compound 1, 2-chloro-1-((3S)-3-methyl-1-(4-morpholinophenyl)-3,4-dihydroisoquinolin-2(1H)-yl)ethan-1-one]
–	2.56	–	–	–	–	COC(=O)c1ccc([C@H]2c3ccccc3C[C@H](C)N2C(=O)CCl)cc1 [Compound 35]
